According to patent US20160175292A1, “Antioxidants Having Aromatic Structures Reacting with Superoxide” (priority 2014, published 2016):
“Also recorded” adds a separate entry of the source.

Assays:
[1] = Cyclic voltammetry, reduction potential (FIG. 12); assay type: physicochemical; settings: 50 mM PBS pH 7.4, modified glassy carbon electrode, scan rate 100 mV/s
Procedure: FIG. 12 is a cyclic voltometry (“CV”) plot of 50 mM PBS (pH=7.4) bare glassy carbon (GC) working electrode and with modified perylene tetracarboxylic anhydride (PTCA) and HCC. (Scan rate: 100 mV/s).
The triethyleneglycol-PDIs (TEG-PDIs) and TEG-NDIs have been analyzed electrochemically and show similar reduction potentials to the HCCs and PEG-HCCs. Electrochemical investigations of HCCs have placed its reduction at −0.7 V vs. Ag/AgCl, as shown by its broad peak in Plot A below.
Accordingly, the triethyleneglycol-PDIs (TEG-PDIs) and TEG-NDIs have been analyzed electrochemically and shown to have similar reduction potentials to the HCCs and PEG-HCCs. Electrochemical investigations of HCCs have placed its reduction at —0.7 V vs. Ag/AgCl (Plot A). 3,4,9,10-Perylenediimide (PDI) derivatives also have redox potentials˜−0.6 V. 1,4,5,8-Naphthalenediimide (NDI) derivatives show discrete reduction steps in the same region (Plot B).

[2] = Superoxide scavenging assay using nitroblue tetrazolium (NBT) and KO2 (FIG. 11); assay type: biochemical; settings: NBT added 30 s, 60 s, 120 s, 300 s after KO2; diformazan at 560 nm
Procedure: The antioxidant and buffer/solvent was added to a cuvette, followed by the KO2 solution. After a set time (30 s, 60 s, 120 s, 300 s), NBT was added and the resulting mixture analyzed for the NBT diformazan (λmax=560 nm) by UV-Vis spectroscopy (FIG. 11).
In FIG. 11, PEG-HCCs and p-benzoquinone (pBQ) were also run for comparison.

T cell proliferation = experiment: In vitro T cell proliferation (FIG. 9); assay type: cell-based
Source text: This is similar to the activity observed with PEG-HCCs.

rat T cells = experiment: In vitro proliferation of ConA-stimulated rat T cells, micromolar concentration (FIG. 10); assay type: cell-based; settings: rat T cells stimulated with 1 μg/mL ConA
Procedure: In vitro analysis of EG3-NDI LNA20, EG8-PDI LNA30, and EG8-NDI, labeled LNA38 (which is Compound A in FIG. 4 where n=8) on T cell proliferation based on micromolar concentration was performed. 1 μg/mL ConA (mitogen) was used to stimulate rat T cells. […] Error bars represent variability between replicate wells. Unstimulated cells (left-hand bar) are shown as a negative control. Statistical analysis was performed between stimulated control cells without treatment (“Stimulated” bar) vs. various doses of the different compounds using a one-way ANOVA and Bonferonni post-hoc tests. *P<0.05, ***P<0.001, ****P<0.0001.

SMILES	reduction potential [1]	superoxide consumption / reaction with superoxide (reduction of NBT) [2]	concentrations showing inhibitory effects on T cell proliferation (T cell proliferation)	effect on T cell proliferation (T cell proliferation)	effect on T cell proliferation (rat T cells)	relative potency in inhibiting T cell proliferation (rat T cells)
O=C1OC(=O)c2ccc3c4ccc5c6c(ccc(c7ccc1c2c73)c64)C(=O)OC5=O [perylene tetracarboxylic anhydride]	−0.7 V vs. Ag/AgCl	–	–	–	–	–
O=C1C=CC(=O)C=C1 [pBQ, p-benzoquinone, reference compound]	–	near complete consumption of superoxide; also recorded: nearly completely consumed	–	–	–	–
COCCOCCOCCN1C(=O)c2ccc3c4c(ccc(c24)C1=O)C(=O)N(CCOCCOCCOC)C3=O [LNA20, bis-methoxytriethylene glycol naphthalene diimide]	–	reacts with superoxide; also recorded: showed activity	above 10 μg/mL	exhibit an inhibitory effect	exhibit an inhibitory effect	most potent
